Data reported in PMC6304418, “A Novel Compound Targeting Protease Receptor 1 Activators for the Treatment of Glioblastoma” (Frontiers in Neurology, 2018).
“Also recorded” adds a separate entry of the source. Where a SMILES comes first, the peptide text is derived from it. The star is where a group is joined. Tos = Cc1ccc(S(=O)(=O)*)cc1; CH2Cl = ClC*

What was measured:
[1] = system: thrombin mediated PAR1 activation (pERK/ERK) in CNS-1 cells; assay: ERK activation (pERK/ERK, Western blot) in CNS-1 cells; assay type: cell-based, rat; details: thrombin 1 U/ml + SIXAC 100 nM, 10 min; n = 3; thrombin alone 2.09 ± 0.28, p < 0.03
Method: Cells were seeded (1 × 10^6 cells/75 cm^2 flask) and incubated for 24 h. Then the medium was replaced by FCS-free medium for another 24 h. The cells were treated for 10 min with thrombin (1 U/ml), SIXAC (100 nM), a combination of thrombin and SIXAC or a FCS-free medium which was used as a control (n = 3 for each treatment). The cells were washed and lysed in RIPA buffer (containing in mM: 50 TRIS HCl pH 8, 150 NaCl, 1% NP-40, 0.5% sodium deoxycholate, and 0.1% SDS), a protease inhibitor cocktail (Merck Millipore 539134, 1:100), 0.1 mM sodium orthovanadate and 2 mM PMSF. The cells were scraped, collected and centrifuged (16,000g × 20 min) at 4°C. The supernatants were collected, and protein concentration was determined by means of a bicinchoninic acid (BCA) assay. Each sample (20 μg) was separated by SDS-polyacrylamide gel electrophoresis. The proteins were transferred onto nitrocellulose membranes. Membranes were incubated with mouse anti-phosphorylated Extracellular signal-Regulated Kinase (pERK) antibody (1:10,000, M8159, Sigma), for 1.5 h at room temperature (RT) and washed with Tris-buffered saline and 0.1% Tween 20 (TBST). Membranes were then incubated at RT with horseradish peroxidase-conjugated goat anti-mouse antibody (1:10,000, Jackson Immunoresearch Laboratories). […] Protein bands were detected by a peroxidase-based enhanced chemiluminescence (ECL) method. […]

[2] = system: CNS-1 tumors in rat brains; assay: Histopathology of CNS-1 GBM rat brains (H&E, Ki67); assay type: in vivo
Method: Rats were allocated to three groups. 1. Control group (n = 15) treated with alzet-pumps contain saline. 2. Moderate dose treated group (n = 16) treated with alzet-pump containing SIXAC (2μg/kg/day). 3. High dose treated group (n = 14) treated with alzet-pumps contain SIXAC (20μg/kg/day). Survival was registered daily and the brains were dissected immediately after death determination and were placed in 4% PFA and kept at 4°C. Upon MRI scanning the brains were moved to PBS containing tubes, scanning was performed and ROI were quantified.
Formalin-fixed, paraffin-embedded brains were serially sectioned into 4 μm sections and stained with Hematoxylin and Eosin (H&E). Tumor localization and detailed evaluation was conducted by a senior neuropathologist (NS). Mitosis rate was assessed manually by 2 observers who analyzed 10 fields from each examined brain. Serial 4 μm sections were used for immune-histochemical staining using a commercially available monoclonal rabbit anti-Ki67 antibody (clone SP6,# RM-9106-S, Thermo Scientific, 1:300) according to standard procedures and fully automated protocol. A positive control was added on the right side of the slides for immune-histochemistry. The slides were automatically scanned via Aperio Versa 200 System (leica) using X20 and X40 equivalent objectives. Digital images were captured with Leica DM6000B microscope by AperioImageScope software. The Ki67 index was defined as positive stained nuclei (DAB positive)/all stained nuclei. Ten fields from each tested brain were used for analysis of Ki67 index. The indices were automatically calculated by means of ImmunoRatio application (Version 1.0c) ([43]).

CNS-1 glioma cells = assay: CNS-1 glioma cell proliferation (XTT); assay type: cell-based, rat; details: SIXAC 1 μM, 72 h, FCS-free medium, p < 0.03
Method: (§1) CNS-1, C6, and U87 rat and human glioma cells were grown in Dulbecco's modified Eagle's medium (DMEM; Bet Haemek, Biological Industries, Israel) supplemented with 10% fetal bovine serum (Bet Haemek, Biological Industries, Israel) and 1% penicillin and streptomycin in a 5% CO2-humidified atmosphere.
(§2) Cell proliferation was evaluated using a 2.3-Bis-(2-methoxy-4-nitro-5-sulfophenyl)-2H-tetrazolium-5-carboxyanilide salt (XTT)-based cell proliferation assay kit (Bet Haemek, Biological Industries, Israel). U87 cells were seeded in 96-well plates (5 × 10^3 cells/well) and incubated for 24 h. The medium was then removed, the tested molecules (10^−13-10^−4 M final concentration) were added in FCS-free medium and introduced to the cells for 72 h. After choosing SIXAC as the leading molecule, it was tested in a similar way in CNS-1 cells (SIXAC 1 μM final concentration). XTT solution (50 μl) was added to each well and incubated for 3 h at 37°C. The optical density (OD) of each well was recorded at 450 and 630 nm in a microplate reader (Infinite M200, Tecan, Durham, NC, USA). Cell viability was expressed as the percentage (ODtest–ODblank)/(ODcontrol–ODblank), where ODtest is the optical density of cells exposed to SIXAC treatment, ODcontrol is the optical density of the control sample, and ODblank is the optical density of wells without glioma cells.

CNS-1 colonies = assay: Colony formation assay; assay type: cell-based, rat; details: SIXAC 1 μM, 5 days; colonies > 1 mm; control 13.9 ± 1.09; p = 0.033
Method: The cells were seeded in 6-well plates at a density of 100 cells/well. After 24 h, fresh medium with 1 μM SIXAC was added. Cells were incubated for 5 days, until colonies were formed. Cells were washed with PBS, stained with […] crystal violet (Sigma-Aldrich, C0075) in absolute ethanol for 20 min and then washed again with PBS and dried for 24 h. Colonies that were bigger than 1 mm were counted using Fiji software ([37]–[40]).

U87 glioma cells = assay: U87 glioma cell proliferation (XTT); assay type: cell-based, human; details: 72 h
Method: as §1, §2

[3] = system: human normal pooled citrated plasma; assay: Coagulation in plasma (PT, aPTT, TT)
Method: HemosIL normal control (Instrumentation Laboratory), was used as human normal pooled citrated plasma from healthy donors. The lyophilized human plasma containing buffer, stabilizers and preservatives, was reconstituted using standard laboratory methods. The plasma was exposed in-vitro to indicated concentrations of SIXAC for 10 min. Next, prothrombin time (PT), activated partial thromboplastin time (aPTT) and thrombin time (TT) were measured. All tests were carried out with an ACLTOP® 500 autoanalyzerat in the Sheba medical center (Israel) MegaLab according to standard operating procedures (SOP). The results represent an average of 5 measures.

Q: For `Cc1ccc(S(=O)(=O)N[C@@H](C)C(=O)N[C@H](C(=O)N[C@@H](CC(C)C)C(=O)N[C@@H](CC(=O)O)C(=O)N2CCC[C@H]2C(=O)N[C@@H](CCCNC(=N)N)C(=O)CCl)[C@@H](C)O)cc1` [SIXAC] (Tos-ATLDPR-CH2Cl), which “pERK/ERK ratio, thrombin with SIXAC” value [1] is on record?
A: The value was 0.99 ± 0.21.

Q: What about the “mitosis rate (number of mitosis/field, H&E)” value ([2]; SIXAC treated rats, 10 fields per brain, mean ± SEM, control 7.75 ± 1.45, p = 0.03) of the same compound?
A: The value was 4.9 ± 0.2 mitosis/field.

Q: What about the Ki67 index ([2]; SIXAC treated rats, positive/all stained nuclei, ImmunoRatio, ten fields per brain, mean ± SEM, control 21.55 ± 0.11, p < 0.001) of the same compound?
A: The Ki67 index was 12.74 ± 0.23.

Q: And the “H&E finding in a long survivor rat” value ([2]; high dose 20μg/kg/day long survivor, sacrificed at day 40)?
A: Its value is “large cystic area containing residual tissue with foamy macrophages”.

Q: And the “CNS-1 cell proliferation rate” value (CNS-1 glioma cells)?
A: Its value is “significantly decrease proliferation rate (p < 0.03); also recorded: significantly decrease the CNS-1 cell proliferation rate”.

Q: And the “number of formed colonies” value (CNS-1 colonies)?
A: Its value is 10.5 ± 1.06.

Q: And the “U87 proliferation rate ("inhibit proliferation at a rate of")” value (U87 glioma cells; 10^−5M, FCS-free medium, mean ± SEM, 3AACK vs. 6AACK p < 0.035)?
A: Its value is 0.2 ± 0.34.

Q: What about the “U87 proliferation inhibition, ranking among the molecules” value (U87 glioma cells; 10^−13-10^−4 M, Figure 1D) of the same compound?
A: Its value is “found to inhibit the U87 proliferation rate the most”.

Q: And the “margin of coagulation-affecting concentration over IC50 for thrombin inhibition” value ([3]; 10^−4M vs. IC50 for thrombin inhibition)?
A: Its value is “at least 4.5 orders of magnitude”.

Q: And the “concentration at which coagulation tests (PT, aPTT, TT) are affected” value ([3]; human plasma exposed 10 min, affected only at this concentration, average of 5 measures)?
A: Its value is 10^−4 M.

Q: And the “effect on PT, aPTT and TT (in words)” value ([3]; human plasma exposed 10 min, concentrations equivalent to those used to treat animals, average of 5 measures)?
A: The value was “no clinical significant effects; also recorded: The effect was minimal for the therapeutic dosages used in the experiment”.
